# Results as given in paper PMC6979384, “Characterization of the plant homeodomain (PHD) reader family for their histone tail interactions” (Epigenetics & Chromatin, 2020).
# Columns and labels:
# Assay in all cases: Histone peptide microarray
# Assay type in all cases: binding, human
# [1] = system: TRIM66 (PB); conditions: TRIM66 (PB); sheet "Array Heatmap"; each array performed twice, total n = 4
# Outline: (§1)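 GST-PHD reader, 0.5 μM, probed on 293-peptide histone array (single/combinatorial PTMs); optimized array protocol; signal = mean ± SD, n = 4.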
# [2] = system: KDM5B (3); conditions: KDM5B (3); sheet "Array Heatmap"; each array performed twice, total n = 4
# Outline: as §1
# [3] = system: CHD5 (PPCC); conditions: CHD5 (PPCC); sheet "Array Heatmap"; each array performed twice, total n = 4
# Outline: as §1
# [4] = system: PHF8; conditions: PHF8; sheet "Array Heatmap"; each array performed twice, total n = 4
# Outline: as §1
# [5] = system: PHF13; conditions: PHF13; sheet "Array Heatmap"; each array performed twice, total n = 4
# Outline: as §1
# [6] = system: DIDO1; conditions: DIDO1; sheet "Array Heatmap"; each array performed twice, total n = 4
# Outline: as §1
# [7] = system: ING5; conditions: ING5; sheet "Array Heatmap"; each array performed twice, total n = 4
# Outline: as §1
# [8] = system: KDM5B (1); conditions: KDM5B (1); sheet "Array Heatmap"; each array performed twice, total n = 4
# Outline: as §1
# [9] = system: TAF3; conditions: TAF3; sheet "Array Heatmap"; each array performed twice, total n = 4
# Outline: as §1
# [10] = system: KDM7A; conditions: KDM7A; sheet "Array Heatmap"; each array performed twice, total n = 4
# Outline: as §1
# [11] = system: KDM5A (1); conditions: KDM5A (1); sheet "Array Heatmap"; each array performed twice, total n = 4
# Outline: as §1
# [12] = system: RAG2; conditions: RAG2; sheet "Array Heatmap"; each array performed twice, total n = 4
# Outline: as §1
# [13] = system: PHF2; conditions: PHF2; sheet "Array Heatmap"; each array performed twice, total n = 4
# Outline: as §1
# [14] = system: KDM5A (3); conditions: KDM5A (3); sheet "Array Heatmap"; each array performed twice, total n = 4
# Outline: as §1
# [15] = system: AIRE (PP); conditions: AIRE (PP); sheet "Array Heatmap"; each array performed twice, total n = 4
# Outline: as §1
# [16] = system: ING2; conditions: ING2; sheet "Array Heatmap"; each array performed twice, total n = 4
# Outline: as §1
# [17] = system: BAZ2B; conditions: BAZ2B; sheet "Array Heatmap"; each array performed twice, total n = 4
# Outline: as §1
# [18] = system: BPTF (PB); conditions: BPTF (PB); sheet "Array Heatmap"; each array performed twice, total n = 4
# Outline: as §1
# [19] = system: MORC3 (CW); conditions: MORC3 (CW); sheet "Array Heatmap"; each array performed twice, total n = 4
# Outline: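 GST-tagged PHD finger readers were expressed, purified and applied at 0.5 μM to a microarray of 293 synthetic histone peptides carrying single or combinatorial PTMs, using an optimized protocol. Binding signals are averages with standard deviation from 4 replicates.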
# [20] = system: PHF23; conditions: PHF23; sheet "Array Heatmap"; each array performed twice, total n = 4
# Outline: as §1
# [21] = system: DPF2 (PPC2W2); conditions: DPF2 (PPC2W2); sheet "Array Heatmap"; each array performed twice, total n = 4
# Outline: as §1
# [22] = system: MLL5; conditions: MLL5; sheet "Array Heatmap"; each array performed twice, total n = 4
# Outline: as §1
# [23] = system: ING1; conditions: ING1; sheet "Array Heatmap"; each array performed twice, total n = 4
# Outline: as §1
# [24] = system: SP140L; conditions: SP140L; sheet "Array Heatmap"; each array performed twice, total n = 4
# Outline: as §1
# [25] = system: PHRF1 (RP); conditions: PHRF1 (RP); sheet "Array Heatmap"; each array performed twice, total n = 4
# Outline: as §1
# [26] = system: CHD5 (PCC); conditions: CHD5 (PCC); sheet "Array Heatmap"; each array performed twice, total n = 4
# Outline: as §1
# [27] = system: PHF21A; conditions: PHF21A; sheet "Array Heatmap"; each array performed twice, total n = 4
# Outline: as §1
# [28] = system: ING4; conditions: ING4; sheet "Array Heatmap"; each array performed twice, total n = 4
# Outline: as §1
# [29] = system: CHD4 (PPCC); conditions: CHD4 (PPCC); sheet "Array Heatmap"; each array performed twice, total n = 4
# Outline: as §1
# [30] = system: ING3; conditions: ING3; sheet "Array Heatmap"; each array performed twice, total n = 4
# Outline: as §1
# [31] = system: KDM4C (TTP); conditions: KDM4C (TTP); sheet "Array Heatmap"; each array performed twice, total n = 4
# Outline: as §1
substance,measurement,setting,value
H2BK16ac: H2B 1-24 [Peptide H2BK16ac],Array Heatmap value (peptide array signal),[1],0.6089
same,Array Heatmap value (peptide array signal),[2],0.4678
same,Array Heatmap value (peptide array signal),[3],0.5498
same,Array Heatmap value (peptide array signal),[4],0.3517
same,Array Heatmap value (peptide array signal),[5],0.6297
same,Array Heatmap value (peptide array signal),[6],0.7223
same,Array Heatmap value (peptide array signal),[7],0.3562
same,Array Heatmap value (peptide array signal),[8],0.6719
same,Array Heatmap value (peptide array signal),[9],0.2759
same,Array Heatmap value (peptide array signal),[10],0.3335
same,Array Heatmap value (peptide array signal),[11],0.4583
same,Array Heatmap value (peptide array signal),[12],0.2422
same,Array Heatmap value (peptide array signal),[13],0.5633
same,Array Heatmap value (peptide array signal),[14],0.4534
same,Array Heatmap value (peptide array signal),[15],0.4203
same,Array Heatmap value (peptide array signal),[16],0.6054
same,Array Heatmap value (peptide array signal),[17],0.4705
same,Array Heatmap value (peptide array signal),[18],0.3487
same,Array Heatmap value (peptide array signal),[19],0.3691
same,Array Heatmap value (peptide array signal),[20],0.5681
same,Array Heatmap value (peptide array signal),[21],0.6685
same,Array Heatmap value (peptide array signal),[22],0.5839
same,Array Heatmap value (peptide array signal),[23],0.5501
same,Array Heatmap value (peptide array signal),[24],0.3579
same,Array Heatmap value (peptide array signal),[25],0.501
same,Array Heatmap value (peptide array signal),[26],0.7842
same,Array Heatmap value (peptide array signal),[27],0.4621
same,Array Heatmap value (peptide array signal),[28],0.4481
same,Array Heatmap value (peptide array signal),[29],0.5943
same,Array Heatmap value (peptide array signal),[30],0.4774
same,Array Heatmap value (peptide array signal),[31],0.4673
